The values below come from PMC10654576, “Isothermal chemical denaturation assay for monitoring protein stability and inhibitor interactions” (Scientific Reports, 2023).

One experiment concerns the target T1, KRAS^G12V (Homo sapiens, UniProt P01116, G12V).
T1 construct: Monomer (2-188); host or cells: E. coli
The experiment in a line: FRET-Probe isothermal chemical denaturation (ICD) assay, KRAS^G12V. Type of experiment: binding. To be noted: for S/B ratio, denaturation with and without GTP: 1 µM GTP. How it is done: (§1) All isothermal chemical denaturation (ICD) assays were conducted in triplicates at RT using a single-step protocol with 25 µL final volume. Sample protein and ligand were added in 5 µL in a buffer (10 mM HEPES (pH 7.5), 10 mM NaCl, (v/v) 0.01% Brij 30) without denaturant. FRET-Probe (0.5 nM) was added to the assay buffer supplemented with chemical denaturant, urea (0–5 M), ethanol (0–30%) or 1-propanol (0–50%). Additionally, 0.2 mM EDTA was used in combination with alcohols.
(§2) In all ICD protein assays, time-resolved Förster resonance energy transfer (TR-FRET) signal was monitored kinetically at multiple time points during 150 min incubation. In all assays with protein binding ligands, 30 min preincubation prior denaturant addition was performed. In acid induced denaturation assay, GTP (0–2 µM) and NADH (0–50 µM) were titrated with KRAS^G12V and MDH, respectively. 1-propanol (30–50%) ICD assays were also performed for MDH in the presence of NADH (0–50 µM) and (20%) for KRAS^G12V using GTP (0–10 µM). […] Additionally, urea was tested with 1 µM GTP with KRAS^G12V.

The target in experiment [1] is MDH. On the set-up: method as in PMID 225321. To be noted: MDH/NADH interaction; cited from earlier work.
Experiment [2] addresses T2, malate dehydrogenase (MDH) (Sus scrofa, UniProt P00346).
T2 construct: purchased Sigma-Aldrich (St. Louis, MO, USA)
T2 sequence (P00346 25-338): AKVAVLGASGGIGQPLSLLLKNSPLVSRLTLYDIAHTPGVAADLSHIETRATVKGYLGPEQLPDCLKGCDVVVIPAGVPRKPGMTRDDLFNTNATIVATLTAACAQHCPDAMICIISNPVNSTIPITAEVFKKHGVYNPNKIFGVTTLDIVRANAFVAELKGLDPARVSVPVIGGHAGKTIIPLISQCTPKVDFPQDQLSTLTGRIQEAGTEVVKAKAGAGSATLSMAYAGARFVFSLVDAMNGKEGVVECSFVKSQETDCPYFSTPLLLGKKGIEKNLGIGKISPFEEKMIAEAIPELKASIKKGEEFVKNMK
Description: FRET-Probe thermal shift assay (TSA), MDH with NADH. As to conditions: for Tm of MDH with NADH: 25 nM MDH. Type of experiment: binding. The method, then:
All FRET-Probe TSA were conducted in triplicates using a single-step protocol, by adding the sample protein in 5 µL and FRET-Probe (0.5 nM) in 20 µL volumes. All concentrations are reported in a 25 µL final volume. Assays were performed in an assay buffer containing 10 mM HEPES (pH 7.5) supplemented with 0.001% (v/v) Triton X-100.

Experiment [3] has as its target T3, MDH (Sus scrofa, UniProt P00346).
T3 construct: purchased Sigma-Aldrich (St. Louis, MO, USA)
T3 sequence (P00346 25-338): T2 sequence (P00346 25-338)
Description: FRET-Probe isothermal chemical denaturation (ICD) assay, MDH. Type of experiment: binding. As to conditions: 25 nM MDH. How it is done: as §1, §2

The term EC50 denotes the concentration at which the effect is half-maximal. The Kd is the equilibrium constant for the complex coming apart.

“Also recorded” adds a separate entry of the source.

For `Nc1ncnc2c1ncn2[C@@H]1O[C@H](COP(=O)(O)OP(=O)(O)OP(=O)(O)O)[C@@H](O)[C@H]1O` [ATP], the “TR-FRET signal level compared with protein alone” value on KRAS^G12V (50 nM KRAS^G12V, pH 5, 2 and 10 µM ATP) is listed as “no change of signal level; also recorded: in the same range”.

As to `Nc1nc2c(ncn2[C@@H]2O[C@H](COP(=O)(O)OP(=O)(O)OP(=O)(O)O)[C@@H](O)[C@H]2O)c(=O)[nH]1` [GTP, guanosine-5'-triphosphate], the “S/B ratio, denaturation with and without GTP” value on KRAS^G12V (50 nM KRAS^G12V, 1 M urea, 60 min) is recorded as 15.1; on KRAS^G12V (50 nM KRAS^G12V, 2 M urea, 60 min) it was 20.3. Moreover, the EC50 at KRAS^G12V (50 nM KRAS^G12V, pH 5 denaturation buffer, 30 min) worked out at 4.5 ± 1.9 nM; on KRAS^G12V (50 nM KRAS^G12V, pH 5 denaturation buffer, 60 min), 2.6 ± 0.7 nM; at KRAS^G12V (50 nM KRAS^G12V, pH 5 denaturation buffer, 90 min), 3.5 ± 0.1 nM; on KRAS^G12V (50 nM KRAS^G12V, pH 5 denaturation buffer, 120 min), 4.6 ± 0.3 nM; at KRAS^G12V (KRAS^G12V, 20% 1-propanol, 30 min) it was 3.6 ± 0.5 nM; at KRAS^G12V (KRAS^G12V, 20% 1-propanol, 60 min) it was 3.8 ± 0.4 nM. Also, the EC50 came to 5.2 ± 1.2 nM on KRAS^G12V (KRAS^G12V, 20% 1-propanol, 90 min) and 5.2 ± 0.7 nM at KRAS^G12V (KRAS^G12V, 20% 1-propanol, 120 min).

Turning to `NC(=O)C1=CN([C@@H]2O[C@H](COP(=O)(O)OP(=O)(O)OC[C@H]3O[C@@H](n4cnc5c(N)ncnc54)[C@H](O)[C@@H]3O)[C@@H](O)[C@H]2O)C=CC1` [NADH, reduced nicotinamide adenine dinucleotide], the equilibrium dissociation constant (Kd) at MDH [1] was 3.8 µM. Also, the “Tm of MDH with NADH” value in experiment [2] (5 µM NADH) was 47.9 ± 0.6 °C; in experiment [2] (50 µM NADH), 51.7 ± 0.2 °C. Moreover, the “Δ Tm of MDH” value in experiment [2] (5 µM NADH) is 1.2 °C; in experiment [2] (50 µM NADH), 5.0 °C. In addition, the EC50 on MDH [3] (30–50% 1-propanol, 60 min incubation) is 29 to 38 µM; at MDH [3] (pH 5 denaturation buffer, RT, 90 min incubation) it was 4.7 ± 0.8 µM. The “ligand-induced stabilization of MDH” value at MDH [3] (pH 5, 5 and 50 µM NADH, RT) is on record as “clear ligand-induced stabilization”.
